According to US11999805B1, “Peptide inhibitors of CRISPR-Cas9” (priority 2020, dated 2024):
“Also recorded” adds a separate entry of the source. Like-named read-outs stand apart in the source and are kept apart here. Residues, ends and D or L forms follow the SMILES beside them. No end group written: not given here.

Columns and labels:
CjeCas9 = biological target: T1, CjeCas9 (Campylobacter jejuni subsp. jejuni serotype O:2, UniProt Q0P897); test: HT FRET-based Cas9 cleavage activity assay, CjeCas9; type: biochemical, C. jejuni
T1 construct: made in house; host or cells: E. coli BL21(star)DE3
Experimental: (§1) To evaluate the ability of identified peptides to inhibit other Cas9 variants, SauCas9 and CjeCas9 cleavage assays were used to quantitatively measure changes in activity. […] The inhibition was measured as relative fluorescent value to Cas9 without peptides (% activity) of CjeCas9 (Top), SauCas9 (middle), SpyCas9 (bottom) by FRET assay with the indicated concentration of peptides. Data are the average ±SD of eleven replicate wells from three technical replicates.
(§2) For the 11 original peptides reactions (10 μL) were set up in Cas9 reaction buffer [20 mM Tris-HCl, pH 7.5, 100 mM NaCl, 5 mM MgCl2, 0.1 mM EDTA] containing 50 nM annealed DNA substrate, 1.5 μM sgRNA, and 0.5 μM Cas9 in the wells of a black low volume 384-well plate. The reactions were incubated for 1 hour at ambient temperature with the indicated concentration of peptide; then, 10 μL, of 8 M Guanidine-HCl was added to quench the reaction. The plates were covered with an aluminum seal and incubated at 75° C. for 10 minutes and cooled down to RT before reading.
(§3) The % inhibition was determined by subtracting normalized relative fluorescent value to Cas9 without peptides (% activity) from 100% cleavage activity of CjeCas9, SauCas9, SpyCas9 by FRET assay. Data are the average ±SD of eleven replicate wells from three technical replicates at the indicated concentration of peptides.
(§4) FIGS. 12A, 12B, and 12C show graphs of measurements and fitted curves of concentration dependent inhibition of mutated peptides against Cas9 variants. The inhibition was measured as relative fluorescent value to Cas9 without peptides (% activity) of CjeCas9 (line with squares), SauCas9 (line with diamonds), SpyCas9 (line with triangles) by FRET assay with the indicated concentration of peptides and compared to original peptides (line with circles). Data are the average ±SD of eleven replicate wells from three technical replicates.

SauCas9 = biological target: T2, SauCas9 (Staphylococcus aureus, UniProt J7RUA5); test: HT FRET-based Cas9 cleavage activity assay, SauCas9; type: biochemical, S. aureus
T2 construct: made in house; host or cells: E. coli BL21(star)DE3
Experimental: as §1, §2, §3, §4

SpyCas9 [1] = biological target: T3, SpyCas9 (Streptococcus pyogenes serotype M1, UniProt Q99ZW2); type: biochemical, S. pyogenes; settings: for IC50: read-out: SpyCas9 IC50, FRET cleavage assay, concentration curves, 0.5 μM Cas9, 50 nM DNA substrate
Experimental: To determine whether synthetic peptides would inhibit Cas9 cleavage activity, 200 peptide sequences were selected for chemical synthesis based on the following criteria: (1) peptides enriched after independent panning on RNP immobilized on both the Monomeric Avidin and NeutrAvidin columns, (2) Higher Boman index (>2.3), the computed potential protein-protein interaction for a given amino-acids sequence (3) a predicted instability index below 50. Theses peptides were screened at 200 μM for inhibition of Cas9 cleavage activity using the recently developed HT FRET-based assay using a dual-quencher substrate with low background and high sensitivity. See Seamon K J, Light Y K, Saada E A, Schoeniger J S, Harmon B. 2018. Versatile High-Throughput Fluorescence Assay for Monitoring Cas9 Activity. Analytical Chemistry 90:6913-6921. This assay specifically measures DNA substrate cleavage, and is able to differentiate between cleavage of a single strand of DNA and cleavage of both DNA strands.
Reactions (10 μL tubes) were set up in Cas9 reaction buffer (20 mM Tris-HCl, pH 7.5, 100 mM NaCl, 5 mM MgCl2, 0.1 mM EDTA) containing 50 nM annealed DNA substrate, 1.5 μM sgRNA, and 500 nM Cas9 in the wells of a black low volume 384-well plate. The reactions were incubated for 1 hour at ambient temperature; then, 10 μL of 8 M Gdn-HCl was added to quench the reaction before the plates were covered with an aluminum seal and incubated at 80° C. for 10 minutes. The fluorescence was read in a Tecan Infinite M1000 or SPARK plate spectrofluorometer (Tecan).
The peptides were diluted 2-fold from 200 to 12.5 μM and incubated for 1 hour with 500 nM SpyCas9, gRNA prior to addition of 50 nM FRET DNA substrate for 1 hour. […] Data are the average ±SD of three replicate wells.
as §2, §3, §4

SpyCas9 [2] = biological target: T3, SpyCas9; test: Beacon DNA binding assay (Cas9 RNP binding to DNA substrate); set-up: species or system S. pyogenes; settings: for binding of SpyCas9 RNP to DNA substrate (beacon fluorescence): peptide 40 μM, SpyCas9 500 nM, DNA substrate 50 nM
Experimental: To determine the mechanism of action of these peptide inhibitors, a binding assay was performed to determine if inhibitors are blocking Cas9 RNP binding to the DNA substrate. The beacon DNA binding assay was adapted and performed as described in Mekler V, Minakhin L, Semenova E, Kuznedelov K, Severinov K. 2016. Kinetics of the CRISPR-Cas9 effector complex assembly and the role of 3′-terminal segment of guide RNA. Nucleic Acids Res 44:2837-45. DNA probes were prepared from unmodified and chromophore-labeled DNA oligonucleotides synthesized by Integrated DNA Technologies. Equimolar amounts of synthetic complementary strands were mixed in a buffer containing 40 mM Tris, pH 7.9, 100 mM NaCl; heated for 2 min at 90° C. and slowly cooled to 20° C. The PAM-distal ends of the beacon target and non-target strands were labeled with fluorescein and Iowa Black® FQ, respectively. Both beacons mimic native target DNA and bind Cas9/sgRNA. The fluorescent signal is increased when Cas9 binds the DNA substrate and a helix forms with the target substrate strand and gRNA resulting in dissociation of oligo 3, leading to increase in fluorescent signal.
Data are the average ±SD of three replicate wells.

SpyCas9 [3] = biological target: T3, SpyCas9; type: cell-based, S. pyogenes; set-up: host or cells: protein RNP lipofected into A549 reporter cells; settings: for reduction of SpyCas9 editing (relative % CRISPR editing): A549 GFP reporter cells, 500 ng plasmid 24 h before SpyCas9 RNP, compared to plasmid control; for cell toxicity: A549 reporter cells
From the text: The cell-based reporter assay was generated using an endonuclease surrogate reporter construct expressed in A549 cells. This construct was composed of genes encoding two fluorescent proteins (red fluorescent protein (RFP) and green fluorescent protein (GFP)) linked by the endonuclease targeting sequence. In the absence of endonuclease (e.g. Cas9) expression, the reporter was designed to express the RFP but not GFP as it is placed out of frame. Upon expression of Cas9 with a targeting gRNA, the RNP introduces a double stranded break at the target site upstream of the GFP genes leading to frameshift mutations and expression of GFP (FIG. 7). An AAVS1 protospacer and PAM sequence used for targeting by SpyCas9 RNP is in between the RFP and GFP genes. RNP targeting to the AASV1+PAM sequence in the cell's nucleus results in a DSB and error prone NHEJ will likely cause either of the GFP genes to now become in-frame and induce GFP expression. The expression of GFP is strictly dependent on the presence of nuclease activity from endonucleases that specifically recognizes the target sequence in the reporter construct. A549 reporter cells for SpyCas9 were reverse transfected with 100-500 ng of indicated plasmids using Lipofectamine, the plasmids were at a 1:1 ratio with SpyCas9 RNP. […] After 24 hours the media was changed, and 100-500 ng of SpyCas9 RNP was forward transfected using CRISPRMax (Thermo Fisher).
Editing was assessed at 48 hours and 72 hours post transfection using the CX7 plate imager and/or flow cytometry using an ACCURI C6 flow cytometer (BD BIOSCIENCES) with FCS EXPRESS SOFTWARE (DE NOVO SOFTWARE). Cells were counted as edited if their FL-1 fluorescence was greater than that of the no RNP control. […] Error bars represent ±SD across technical replicates (n=2).

T1 sequence (Q0P897 whole entry): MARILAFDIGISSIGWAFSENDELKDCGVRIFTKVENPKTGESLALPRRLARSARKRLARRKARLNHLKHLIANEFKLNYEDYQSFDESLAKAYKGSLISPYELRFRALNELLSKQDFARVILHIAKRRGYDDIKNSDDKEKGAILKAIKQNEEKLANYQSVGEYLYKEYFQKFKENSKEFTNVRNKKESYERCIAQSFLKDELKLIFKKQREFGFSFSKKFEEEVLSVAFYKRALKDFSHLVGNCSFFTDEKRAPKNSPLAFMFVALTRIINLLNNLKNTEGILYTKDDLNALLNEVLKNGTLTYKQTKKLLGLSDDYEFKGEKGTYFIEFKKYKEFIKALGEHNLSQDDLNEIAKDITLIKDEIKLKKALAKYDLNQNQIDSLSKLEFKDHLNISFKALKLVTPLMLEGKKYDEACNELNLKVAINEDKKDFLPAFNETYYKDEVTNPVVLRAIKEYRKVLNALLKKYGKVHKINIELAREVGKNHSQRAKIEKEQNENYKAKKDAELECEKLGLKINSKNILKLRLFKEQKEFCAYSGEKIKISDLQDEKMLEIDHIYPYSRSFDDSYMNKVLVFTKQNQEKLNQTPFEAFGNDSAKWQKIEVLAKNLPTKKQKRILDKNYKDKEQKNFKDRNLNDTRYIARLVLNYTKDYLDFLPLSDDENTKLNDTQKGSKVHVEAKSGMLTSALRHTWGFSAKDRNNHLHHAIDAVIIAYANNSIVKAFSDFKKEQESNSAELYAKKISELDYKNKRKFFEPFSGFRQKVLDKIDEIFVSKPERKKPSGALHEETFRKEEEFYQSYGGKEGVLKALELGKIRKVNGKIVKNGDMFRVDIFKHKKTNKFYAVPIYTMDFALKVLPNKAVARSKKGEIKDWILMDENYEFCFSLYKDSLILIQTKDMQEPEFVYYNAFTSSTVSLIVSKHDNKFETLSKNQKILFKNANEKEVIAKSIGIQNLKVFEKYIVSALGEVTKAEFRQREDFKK
T2 sequence (J7RUA5 whole entry): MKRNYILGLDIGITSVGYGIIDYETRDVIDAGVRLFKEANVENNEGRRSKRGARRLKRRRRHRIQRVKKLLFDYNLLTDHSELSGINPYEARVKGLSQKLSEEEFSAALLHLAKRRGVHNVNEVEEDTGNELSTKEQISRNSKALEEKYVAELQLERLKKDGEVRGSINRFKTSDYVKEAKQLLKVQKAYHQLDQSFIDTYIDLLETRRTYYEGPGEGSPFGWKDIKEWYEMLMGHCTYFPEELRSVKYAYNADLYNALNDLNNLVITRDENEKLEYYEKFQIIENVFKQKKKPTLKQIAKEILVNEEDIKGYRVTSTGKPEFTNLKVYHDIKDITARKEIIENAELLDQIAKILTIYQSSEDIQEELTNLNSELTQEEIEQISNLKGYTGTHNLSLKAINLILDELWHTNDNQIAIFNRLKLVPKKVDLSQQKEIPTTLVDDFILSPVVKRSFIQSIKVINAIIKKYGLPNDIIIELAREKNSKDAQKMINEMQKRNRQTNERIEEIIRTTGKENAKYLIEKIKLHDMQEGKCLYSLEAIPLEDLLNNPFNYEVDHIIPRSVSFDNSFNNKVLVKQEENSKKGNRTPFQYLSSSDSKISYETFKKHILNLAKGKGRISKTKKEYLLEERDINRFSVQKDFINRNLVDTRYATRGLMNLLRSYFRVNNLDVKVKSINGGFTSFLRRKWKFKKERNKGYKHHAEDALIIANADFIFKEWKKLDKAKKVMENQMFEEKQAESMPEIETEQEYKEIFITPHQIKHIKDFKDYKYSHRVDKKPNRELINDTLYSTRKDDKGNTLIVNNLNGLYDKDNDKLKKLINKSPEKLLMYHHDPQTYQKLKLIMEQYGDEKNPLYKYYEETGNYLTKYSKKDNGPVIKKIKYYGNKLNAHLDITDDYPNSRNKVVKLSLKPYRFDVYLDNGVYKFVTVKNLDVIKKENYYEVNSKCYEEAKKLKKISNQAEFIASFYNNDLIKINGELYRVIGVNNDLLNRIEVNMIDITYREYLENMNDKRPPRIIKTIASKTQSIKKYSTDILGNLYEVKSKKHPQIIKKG
T3 sequence (Q99ZW2 whole entry): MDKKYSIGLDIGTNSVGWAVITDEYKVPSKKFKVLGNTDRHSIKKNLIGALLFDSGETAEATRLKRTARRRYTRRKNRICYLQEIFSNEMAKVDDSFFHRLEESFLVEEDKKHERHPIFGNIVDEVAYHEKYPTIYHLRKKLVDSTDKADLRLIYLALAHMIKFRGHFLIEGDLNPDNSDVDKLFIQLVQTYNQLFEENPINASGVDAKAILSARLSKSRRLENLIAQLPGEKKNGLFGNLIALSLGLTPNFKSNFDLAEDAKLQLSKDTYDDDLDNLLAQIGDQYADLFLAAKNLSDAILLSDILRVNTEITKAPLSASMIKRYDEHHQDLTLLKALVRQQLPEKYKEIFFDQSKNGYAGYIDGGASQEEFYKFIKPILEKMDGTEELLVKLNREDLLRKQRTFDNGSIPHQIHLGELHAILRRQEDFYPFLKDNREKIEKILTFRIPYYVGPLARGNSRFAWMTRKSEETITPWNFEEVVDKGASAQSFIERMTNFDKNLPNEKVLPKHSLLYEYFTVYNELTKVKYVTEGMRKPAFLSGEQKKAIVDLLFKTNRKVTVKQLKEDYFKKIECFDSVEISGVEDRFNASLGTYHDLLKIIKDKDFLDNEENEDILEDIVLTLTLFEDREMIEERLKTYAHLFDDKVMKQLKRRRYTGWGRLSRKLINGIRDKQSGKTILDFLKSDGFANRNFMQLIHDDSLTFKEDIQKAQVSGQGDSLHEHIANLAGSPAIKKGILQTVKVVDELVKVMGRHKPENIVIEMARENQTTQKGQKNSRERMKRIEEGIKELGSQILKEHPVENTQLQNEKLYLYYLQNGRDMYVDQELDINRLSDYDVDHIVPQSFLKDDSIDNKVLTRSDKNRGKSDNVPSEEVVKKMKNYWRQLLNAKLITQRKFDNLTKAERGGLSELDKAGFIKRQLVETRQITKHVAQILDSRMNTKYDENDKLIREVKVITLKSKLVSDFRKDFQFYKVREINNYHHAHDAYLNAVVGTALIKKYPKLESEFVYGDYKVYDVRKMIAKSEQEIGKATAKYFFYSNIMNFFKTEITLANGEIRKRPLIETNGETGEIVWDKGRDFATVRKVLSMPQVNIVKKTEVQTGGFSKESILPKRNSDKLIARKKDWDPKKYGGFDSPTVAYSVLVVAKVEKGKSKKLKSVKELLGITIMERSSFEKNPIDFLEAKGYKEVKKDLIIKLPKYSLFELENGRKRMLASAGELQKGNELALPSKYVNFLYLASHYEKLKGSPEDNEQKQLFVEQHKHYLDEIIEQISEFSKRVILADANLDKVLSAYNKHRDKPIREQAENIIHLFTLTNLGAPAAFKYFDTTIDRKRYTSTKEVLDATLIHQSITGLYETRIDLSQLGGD

Compound	IC50 (CjeCas9) [µM]	IC50 (SauCas9) [µM]	IC50 (SpyCas9 [1]) [µM]	further results
LNVKIENAHLTTNLSTMPLVLC [Peptide 63-2-87]	90.9	> 200	> 200	–
DRSHKILLCYNGRNKRLLLRRL [Peptide 90-2-18]	74.9	68.2	47.2	–
TESIRSYFAMTIRRNH [Peptide 80]	–	–	–	mechanism subset: blocks Cas9 RNP binding to target DNA or other mechanism (SpyCas9 [2]): block Cas9 RNP binding to the target DNA
DRSQKIFLRYNRCRYRLLQRGL [Peptide 90-1-18]	73.6	58.4	48.4	–
RRSHIAWLLAMSLTWYS [Peptide 99]	–	–	–	activity of CjeCas9 (% activity, FRET) (CjeCas9; peptide 100 μM): significantly reduced activity; activity of CjeCas9 (% activity, FRET) (CjeCas9; peptide 200 μM): significantly reduced activity; activity of SauCas9 (% activity, FRET) (SauCas9; peptide 100 μM): significantly reduced activity; activity of SauCas9 (% activity, FRET) (SauCas9; peptide 200 μM): significantly reduced activity; mechanism subset: blocks Cas9 RNP binding to target DNA or other mechanism (SpyCas9 [2]): block Cas9 RNP binding to the target DNA; binding of SpyCas9 RNP to DNA substrate (beacon fluorescence) (SpyCas9 [2]): significantly reduced; also recorded: reducing binding; activity of SpyCas9 (% activity, FRET) (SpyCas9 [1]; peptide 100 μM): significantly reduced activity; activity of SpyCas9 (% activity, FRET) (SpyCas9 [1]; peptide 200 μM): significantly reduced activity
DRSHKILLRHSGCLYRFLQRYL [Peptide 90-2-5]	> 200	91.3	86.5	–
IAGFRREWFNQNTYFENWHADR [Peptide 15]	–	–	–	reduction of SpyCas9 editing (relative % CRISPR editing) (SpyCas9 [3]): 21±4.2%; cell toxicity (SpyCas9 [3]): without cell toxicity
RDPNSRRSHIARLLAMSLTWYS [Peptide 99-2-2]	> 200	110	56.2	–
VCAFSADESLLIRRRHQRRRAG [Peptide 60]	–	–	92.2	reduction of SpyCas9 editing (relative % CRISPR editing) (SpyCas9 [3]): 30±2.3%; cell toxicity (SpyCas9 [3]): without cell toxicity
RERRRSLIQISVKSYPLFLGGT [Peptide 82-2-28]	> 200	153	72.5	–
LNVKIGNAHLTTIMSTMPLVLC [Peptide 63]	–	–	–	mechanism subset: blocks Cas9 RNP binding to target DNA or other mechanism (SpyCas9 [2]): inhibit CACs9 RNP cleavage by another mechanism
CC[C@H](C)[C@H](NC(=O)[C@H](CCCNC(=N)N)NC(=O)[C@H](Cc1ccc(O)cc1)NC(=O)[C@H](Cc1ccc(O)cc1)NC(=O)[C@@H](N)CC(C)C)C(=O)N[C@@H](CCSC)C(=O)N[C@@H](CC(C)C)C(=O)N[C@@H](CO)C(=O)N[C@@H](CS)C(=O)N1CCC[C@H]1C(=O)N[C@@H](CCCCN)C(=O)N[C@@H](Cc1ccc(O)cc1)C(=O)N[C@@H](Cc1ccc(O)cc1)C(=O)N1CCC[C@H]1C(=O)N[C@@H](CS)C(=O)N[C@@H](CCC(=O)O)C(=O)N[C@@H](CC(C)C)C(=O)N[C@H](C(=O)NCC(=O)N[C@@H](Cc1c[nH]cn1)C(=O)N[C@H](C(=O)N[C@@H](CO)C(=O)O)[C@@H](C)O)C(C)C [Peptide 50] (H-LYYRIMLSCPKYYPCELVGHTS-OH)	–	–	145	reduction of SpyCas9 editing (relative % CRISPR editing) (SpyCas9 [3]): 30±1.4%; cell toxicity (SpyCas9 [3]): without cell toxicity
DGSLKILLRYNGCHYRLLQRSL [Peptide 90-3-50]	> 200	> 200	65.5	–
KERRRSLMQLSVKSNSLFLGGT [Peptide 82]	–	–	–	mechanism subset: blocks Cas9 RNP binding to target DNA or other mechanism (SpyCas9 [2]): inhibit CACs9 RNP cleavage by another mechanism
PNVKIGKAHLTTIMSTMPLIIC [Peptide 63-2-27]	> 200	95.3	81.6	–
KERHRSLMRTTVKYYSLCLGGT [Peptide 82-2-12]	87.1	69	35.3	–
DRSHKILLRYNGCHYRLLQRSL [Peptide 90]	–	–	114	reduction of SpyCas9 editing (relative % CRISPR editing) (SpyCas9 [3]): 35±2.1%; cell toxicity (SpyCas9 [3]): without cell toxicity
RLYHQCFLACLIDRQSPRNV [Peptide 73]	–	–	–	mechanism subset: blocks Cas9 RNP binding to target DNA or other mechanism (SpyCas9 [2]): block Cas9 RNP binding to the target DNA; binding of SpyCas9 RNP to DNA substrate (beacon fluorescence) (SpyCas9 [2]): unaltered; also recorded: did not reduce substrate binding
GDPNSRRSHIARLLAMSLTWYS [Peptide 99-1-1]	105	99.3	63.2	–
LRQISNTSIVMGTTPSSVAVCG [Peptide 61]	–	–	–	mechanism subset: blocks Cas9 RNP binding to target DNA or other mechanism (SpyCas9 [2]): inhibit CACs9 RNP cleavage by another mechanism
VSAYSADESLLIRRRRRRRRAG [Peptide 60-1-56]	69.2	62.9	44.6	–
